Experimental data published in patent US20230265151A1, “GIP/GLP1 CO-AGONIST COMPOUNDS” (priority 2020, published 2023).
Read-outs that look alike come from different tables or passages of the source. *1 amine or outer side, *2 acyl side, *3 side chain or, on linkers, in order; H or OH if unused. Where a SMILES comes first, the peptide text is derived from it. Side-chain parts run from the residue outwards. [ ]: non-standard residue; d: D form. The star is where a group is joined. αMePhe(2-F) = C[C@](N)(Cc1ccccc1F)C(=O)O; γGlu = O=C(O)[C@H](CCC(=O)[*:2])N[*:1]; C14 diacid = O=C(O)CCCCCCCCCCCCC(=O)*; αMeY = C[C@](N)(Cc1ccc(O)cc1)C(=O)O; αMeL = CC(C)C[C@](C)(N)C(=O)O; Orn = NCCC[C@H](N)C(=O)O; AEEA = NCCOCCOCC(=O)O; Aib = CC(C)(N)C(=O)O

Legend:
Assay type in all cases: cell-based
hGIPR = biological target: T1, hGIPR (Homo sapiens, UniProt P48546); test: Functional cAMP formation (HTRF) in HEK-293 clonal cells expressing hGIPR, 0.1% bovine casein, without or with 1.0% human serum albumin; details: for EC50: geometric mean; for Emax: read-out: hGIPR Emax, % ± SEM
T1 construct: expressed in transfected cells
T1 sequence (P48546 22-466): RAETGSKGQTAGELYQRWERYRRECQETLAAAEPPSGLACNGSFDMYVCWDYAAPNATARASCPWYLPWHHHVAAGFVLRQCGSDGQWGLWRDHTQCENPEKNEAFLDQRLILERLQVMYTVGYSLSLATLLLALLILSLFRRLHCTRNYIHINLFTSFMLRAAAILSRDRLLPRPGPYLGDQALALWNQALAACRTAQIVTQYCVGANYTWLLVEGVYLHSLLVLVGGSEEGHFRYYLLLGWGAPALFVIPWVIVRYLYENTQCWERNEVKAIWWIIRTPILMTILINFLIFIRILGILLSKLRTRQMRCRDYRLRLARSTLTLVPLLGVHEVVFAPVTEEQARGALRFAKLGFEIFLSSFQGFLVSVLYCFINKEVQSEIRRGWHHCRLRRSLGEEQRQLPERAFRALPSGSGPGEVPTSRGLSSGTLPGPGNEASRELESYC
In short: (§1)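 Cells were stimulated with peptide for 30 min at 37° C, then intracellular cAMP was measured by competitive HTRF (665/620 nm ratio) and converted to nM using a cAMP standard curve. Relative EC50 and Emax came from four-parameter logistic fits of percent maximal response against peptide concentration.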

hGCGR = biological target: T2, hGCGR (Homo sapiens, UniProt P47871); test: Functional cAMP formation (HTRF) in HEK-293 clonal cells expressing hGCGR, 0.1% bovine casein, without or with 1.0% human serum albumin
T2 construct: expressed in transfected cells
T2 sequence (P47871 26-477): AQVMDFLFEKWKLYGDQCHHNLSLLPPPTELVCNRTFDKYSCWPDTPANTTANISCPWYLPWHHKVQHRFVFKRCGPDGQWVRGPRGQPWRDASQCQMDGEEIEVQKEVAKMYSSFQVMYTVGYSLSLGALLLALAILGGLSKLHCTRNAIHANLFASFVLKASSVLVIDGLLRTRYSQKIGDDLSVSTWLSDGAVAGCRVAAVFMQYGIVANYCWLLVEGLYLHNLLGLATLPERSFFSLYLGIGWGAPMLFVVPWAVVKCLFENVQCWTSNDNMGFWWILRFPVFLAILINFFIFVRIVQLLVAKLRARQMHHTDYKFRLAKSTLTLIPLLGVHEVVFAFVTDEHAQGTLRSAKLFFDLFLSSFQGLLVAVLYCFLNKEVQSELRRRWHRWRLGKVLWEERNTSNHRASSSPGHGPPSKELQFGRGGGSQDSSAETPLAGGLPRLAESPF
In short: as §1

hGLP-1R = hGLP-1R (Homo sapiens, UniProt P43220); test: Functional cAMP formation (HTRF) in HEK-293 clonal cells expressing hGLP-1R, 0.1% bovine casein, without or with 1.0% human serum albumin; design: expressed in transfected cells
Chain of hGLP-1R (P43220 24-463): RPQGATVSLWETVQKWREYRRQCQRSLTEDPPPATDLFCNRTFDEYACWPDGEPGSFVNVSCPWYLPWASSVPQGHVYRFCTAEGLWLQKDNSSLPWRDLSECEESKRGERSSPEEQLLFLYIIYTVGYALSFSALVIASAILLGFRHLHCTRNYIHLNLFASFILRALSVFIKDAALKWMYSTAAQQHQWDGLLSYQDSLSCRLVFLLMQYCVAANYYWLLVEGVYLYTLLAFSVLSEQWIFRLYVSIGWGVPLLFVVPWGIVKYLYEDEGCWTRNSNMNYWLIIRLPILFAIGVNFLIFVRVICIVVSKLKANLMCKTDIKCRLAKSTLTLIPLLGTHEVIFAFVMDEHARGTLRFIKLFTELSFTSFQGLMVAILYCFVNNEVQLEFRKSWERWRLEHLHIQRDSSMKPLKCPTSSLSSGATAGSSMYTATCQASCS
In short: as §1

[1] = HEK293, percent of maximal response to GIP(1-42)NH2, 37° C., 0.1% bovine casein, arithmetic mean
[2] = 0.1% bovine casein and 1.0% human serum albumin, 37° C., geometric mean, read-out: hGCGR EC50, nM (SEM, n)
[3] = cAMP, incubated at 37° C., 0.1% bovine casein (no human serum albumin), geometric mean, read-out: hGCGR EC50, nM (SEM, n)
[4] = HEK293, 0.1% bovine casein and 1.0% human serum albumin, 37° C., percent of maximal response to GLP-1(7-36)NH2, read-out: hGLP-1R Emax, % ± SEM
[5] = HEK293, percent of maximal response to GLP-1(7-36)NH2, 37° C., 0.1% bovine casein, arithmetic mean, read-out: hGLP-1R Emax, % ± SEM
[6] = cAMP, incubated at 37° C., 0.1% bovine casein (no human serum albumin), geometric mean, read-out: hGLP-1R EC50, nM (SEM, n)

## CC[C@H](C)[C@H](NC(=O)[C@H](CCCN)NC(=O)[C@H](CC(=O)O)NC(=O)[C@H](CC(C)C)NC(=O)[C@](C)(CC(C)C)NC(=O)[C@@H](NC(=O)[C@H](CO)NC(=O)[C@H](Cc1ccncc1)NC(=O)[C@H](CC(=O)O)NC(=O)[C@H](CO)NC(=O)[C@@H](NC(=O)[C@](C)(Cc1ccccc1F)NC(=O)[C@@H](NC(=O)CNC(=O)[C@H](CCC(=O)O)NC(=O)C(C)(C)NC(=O)[C@@H](N)Cc1ccc(O)cc1)[C@@H](C)O)[C@@H](C)O)[C@@H](C)CC)C(=O)N[C@@H](C)C(=O)N[C@@H](CCC(N)=O)C(=O)NC(C)(C)C(=O)N[C@@H](CCCCNC(=O)COCCOCCNC(=O)COCCOCCNC(=O)CC[C@H](NC(=O)CCCCCCCCCOc1ccc(C(=O)O)cc1)C(=O)O)C(=O)N[C@@H](Cc1ccccc1)C(=O)N[C@H](C(=O)N[C@H](CCC(=O)O)C(=O)N[C@@](C)(Cc1ccc(O)cc1)C(=O)N[C@@H](CC(C)C)C(=O)N[C@H](C(=O)N[C@@H](CCCCNC(=O)COCCOCCNC(=O)COCCOCCNC(=O)CC[C@H](NC(=O)CCCCCCCCCOc1ccc(C(=O)O)cc1)C(=O)O)C(=O)NCC(=O)NCC(=O)N1CCC[C@H]1C(=O)N[C@@H](CO)C(=O)N[C@@H](CO)C(=O)NCC(=O)N[C@@H](C)C(=O)N1CCC[C@H]1C(=O)N1CCC[C@H]1C(=O)N1CCC[C@H]1C(=O)N[C@@H](CO)C(N)=O)[C@@H](C)CC)[C@@H](C)CC [Example 275]
hGIPR; hGIPR EC50, nM (SEM, n), cAMP, 37° C., 0.1% bovine casein (no human serum albumin)
  EC50: 0.0152 nM
hGCGR; hGCGR EC50, nM (SEM, n), 0.1% bovine casein and 1.0% human serum albumin, 37° C., geometric mean
  EC50: > 9950 nM
hGCGR; hGCGR EC50, nM (SEM, n), cAMP, 37° C., 0.1% bovine casein (no human serum albumin), geometric mean
  EC50: > 9950 nM
hGLP-1R; HEK293, read-out: hGLP-1R Emax, % ± SEM, cAMP, 37° C., 0.1% bovine casein, percent of maximal response to GLP-1(7-36)NH2, arithmetic mean
  Emax: 110%
hGLP-1R; hGLP-1R EC50, nM (SEM, n), 0.1% bovine casein and 1.0% human serum albumin, 37° C., geometric mean
  EC50: 33.5 nM

## CC[C@H](C)[C@H](NC(=O)[C@H](CCCN)NC(=O)[C@H](CC(=O)O)NC(=O)[C@H](CC(C)C)NC(=O)[C@](C)(CC(C)C)NC(=O)[C@@H](NC(=O)[C@](C)(CO)NC(=O)[C@H](Cc1ccncc1)NC(=O)[C@H](CC(=O)O)NC(=O)[C@H](CO)NC(=O)[C@@H](NC(=O)[C@](C)(Cc1ccccc1F)NC(=O)[C@@H](NC(=O)CNC(=O)[C@H](CCC(=O)O)NC(=O)C(C)(C)NC(=O)[C@@H](N)Cc1ccc(O)cc1)[C@@H](C)O)[C@@H](C)O)[C@@H](C)CC)C(=O)N[C@@H](C)C(=O)N[C@@H](CCC(N)=O)C(=O)NC(C)(C)C(=O)N[C@@H](CCCCNC(=O)COCCOCCNC(=O)COCCOCCNC(=O)CC[C@H](NC(=O)CCCCCCCCCCCCC(=O)O)C(=O)O)C(=O)N[C@@H](Cc1ccccc1)C(=O)N[C@H](C(=O)N[C@H](CCC(=O)O)C(=O)N[C@@](C)(Cc1ccc(O)cc1)C(=O)N[C@@H](CC(C)C)C(=O)N[C@H](C(=O)N[C@@H](CCCCNC(=O)COCCOCCNC(=O)COCCOCCNC(=O)CC[C@H](NC(=O)CCCCCCCCCCCCC(=O)O)C(=O)O)C(=O)NCC(=O)NCC(=O)N1CCC[C@H]1C(=O)N[C@@H](CO)C(=O)N[C@@H](CO)C(=O)NCC(=O)N[C@@H](C)C(=O)N1CCC[C@H]1C(=O)N1CCC[C@H]1C(=O)N1CCC[C@H]1C(=O)N[C@@H](CO)C(N)=O)[C@@H](C)CC)[C@@H](C)CC [Example 217]
hGIPR; 0.1% bovine casein and 1.0% human serum albumin, 37° C., read-out: hGIPR EC50, nM (SEM, n)
  EC50: 7.84 nM
hGIPR; HEK293, 0.1% bovine casein and 1.0% human serum albumin, 37° C., percent of maximal response to GIP(1-42)NH2
  Emax: 62.7%
hGIPR; [1]
  Emax: 95.5%
hGIPR; cAMP, incubated at 37° C., 0.1% bovine casein (no human serum albumin), read-out: hGIPR EC50, nM (SEM, n)
  EC50: 0.0309 nM
hGCGR; [2]
  EC50: > 9950 nM
hGCGR; [3]
  EC50: > 9950 nM
hGLP-1R; [4]
  Emax: 118%
hGLP-1R; [5]
  Emax: 88%
hGLP-1R; [6]
  EC50: 0.436 nM

## CC[C@H](C)[C@H](NC(=O)[C@H](CC(C)C)NC(=O)[C@](C)(Cc1ccc(O)cc1)NC(=O)[C@@H](CCC(=O)O)NC(=O)[C@@H](NC(=O)[C@H](Cc1ccccc1)NC(=O)[C@H](CCC(=O)O)NC(=O)C(C)(C)NC(=O)[C@H](CCC(N)=O)NC(=O)[C@H](C)NC(=O)[C@H](CCCCNC(=O)COCCOCCNC(=O)COCCOCCNC(=O)CC[C@H](NC(=O)CCCCCCCCCCCCC(=O)O)C(=O)O)NC(=O)[C@H](CCCN)NC(=O)[C@H](CC(=O)O)NC(=O)[C@H](CC(C)C)NC(=O)[C@](C)(CC(C)C)NC(=O)[C@@H](NC(=O)[C@H](CO)NC(=O)[C@@H](NC(=O)[C@H](CC(=O)O)NC(=O)[C@H](CO)NC(=O)[C@@H](NC(=O)[C@](C)(Cc1ccccc1F)NC(=O)[C@@H](NC(=O)CNC(=O)[C@H](CCC(=O)O)NC(=O)C(C)(C)NC(=O)[C@@H](N)Cc1ccc(O)cc1)[C@@H](C)O)[C@@H](C)O)C(C)C)[C@@H](C)CC)[C@@H](C)CC)C(=O)N[C@@H](CCC(=O)O)C(=O)NCC(=O)NCC(=O)N[C@@H](CCCCNC(=O)COCCOCCNC(=O)COCCOCCNC(=O)CC[C@H](NC(=O)CCCCCCCCCCCCC(=O)O)C(=O)O)C(=O)N[C@@H](CO)C(=O)N[C@@H](CO)C(=O)NCC(=O)N[C@@H](C)C(=O)N1CCC[C@H]1C(=O)N1CCC[C@H]1C(=O)N1CCC[C@H]1C(=O)N[C@@H](CO)C(N)=O [Example 90] (H-Y[Aib]EGT[αMePhe(2-F)]TSDVSI[αMeL]LD[Orn]K([AEEA-AEEA-γGlu-C14 diacid])AQ[Aib]EFI[dE][αMeY]LIEGGK([AEEA-AEEA-γGlu-C14 diacid])SSGAPPPS-NH2)
hGIPR; [1]
  Emax: 93 ± 3.31%
hGCGR; [2]
  EC50: > 9950 nM
hGCGR; [3]
  EC50: > 9950 nM
hGLP-1R; 0.1% bovine casein and 1.0% human serum albumin, 37° C., geometric mean, read-out: hGLP-1R EC50, nM (SEM, n)
  EC50: 23.4 nM
hGLP-1R; [4]
  Emax: 96.6%
hGLP-1R; [5]
  Emax: 96.2 ± 1.5%
hGLP-1R; [6]
  EC50: 0.221 nM

## CC[C@H](C)[C@H](NC(=O)[C@H](CC(C)C)NC(=O)[C@](C)(Cc1ccc(O)cc1)NC(=O)[C@H](CCCCNC(=O)COCCOCCNC(=O)CCCCCCCNC(=O)CC[C@H](NC(=O)CCCCCCCCCCCCC(=O)O)C(=O)O)NC(=O)[C@@H](NC(=O)[C@H](Cc1ccccc1)NC(=O)[C@H](CCCN)NC(=O)C(C)(C)NC(=O)[C@H](CCC(N)=O)NC(=O)[C@H](C)NC(=O)[C@H](CCC(N)=O)NC(=O)[C@H](CCCN)NC(=O)[C@H](CC(=O)O)NC(=O)[C@H](CC(C)C)NC(=O)[C@](C)(CC(C)C)NC(=O)[C@@H](NC(=O)C(C)(C)NC(=O)[C@H](Cc1ccncc1)NC(=O)[C@H](CC(=O)O)NC(=O)[C@H](CO)NC(=O)[C@@H](NC(=O)[C@](C)(Cc1ccccc1F)NC(=O)[C@@H](NC(=O)CNC(=O)[C@H](CCC(=O)O)NC(=O)C(C)(C)NC(=O)[C@@H](N)Cc1ccc(O)cc1)[C@@H](C)O)[C@@H](C)O)[C@@H](C)CC)[C@@H](C)CC)C(=O)N[C@@H](CCCCNC(=O)COCCOCCNC(=O)CCCCCCCNC(=O)CC[C@H](NC(=O)CCCCCCCCCCCCC(=O)O)C(=O)O)C(=O)NCC(=O)NCC(=O)N1CCC[C@H]1C(=O)N[C@@H](CO)C(=O)N[C@@H](CO)C(=O)NCC(=O)N[C@@H](C)C(=O)N1CCC[C@H]1C(=O)N1CCC[C@H]1C(=O)N1CCC[C@H]1C(=O)N[C@@H](CO)C(N)=O [Example 450]
hGIPR; HEK293, cAMP, 37° C., 0.1% bovine casein and 1.0% human serum albumin, percent of maximal response to GIP(1-42)NH2
  Emax: 91.4%
hGIPR; cAMP, 37° C., 0.1% bovine casein (no human serum albumin), read-out: hGIPR EC50, nM (SEM, n)
  EC50: 0.0138 nM
hGCGR; cAMP, 37° C., 0.1% bovine casein (no human serum albumin), geometric mean, read-out: hGCGR EC50, nM (SEM, n)
  EC50: > 9950 nM
hGCGR; cAMP, 37° C., 0.1% bovine casein and 1.0% human serum albumin, geometric mean (SEM, n), read-out: hGCGR EC50, nM (SEM, n)
  EC50: > 9950 nM
hGLP-1R; HEK293, cAMP, 37° C., 0.1% bovine casein, percent of maximal response to GLP-1(7-36)NH2, arithmetic mean, read-out: hGLP-1R Emax, % ± SEM
  Emax: 120%
hGLP-1R; cAMP, 37° C., 0.1% bovine casein (no human serum albumin), geometric mean, read-out: hGLP-1R EC50, nM (SEM, n)
  EC50: 0.201 nM
hGLP-1R; cAMP, 37° C., 0.1% bovine casein and 1.0% human serum albumin, geometric mean (SEM, n), read-out: hGLP-1R EC50, nM (SEM, n)
  EC50: 32.3 nM
